From patent US20120028917A1, “Use Of N-(4-((3-(2-Amino-4-Pyrimidinyl)-2-Pyridinyl)Oxy)Phenyl)-4-(4-Methyl-2-Thienyl)-1-Phthalazinamine In The Treatment Of Antimitotic Agent Resistant Cancer” (Amgen Inc., priority 2009, published 2012) come the findings set out here.

In one assay the test system is Colo 205 xenograft. The assay is described as follows: Xenograft tumor growth inhibition (Example 3). The format is in vivo, athymic nude mice. The conditions noted are these: Colo 205, Colon; oral BID, best of intermittent or continuous dose schedule. On the procedure:
(§1) To investigate whether AMG 900-induced suppression of aurora kinase activity inhibits cell proliferation, the antiproliferative efficacy of AMG 900 was evaluated in-vivo in multiple human cancer xenograft models, including breast, colon, leukemia, lung, pancreatic, and uterine cancer models, grown in athymic nude mice. Mice were administered AMG 900 orally at 3.75, 7.5, or 15 mg/kg BID for 2 consecutive days per week or 3 mg/kg BID everyday for the duration of the study beginning when tumors were established. The reagents, solutions, equipment, formulation of AMG 900, tumor volume measurements and calculations were generally as described in Example 4 below.

For a further assay, the system named is HCT 116 xenograft. The assay can be described thus: Xenograft tumor growth inhibition (Example 3). Type of assay: in vivo, athymic nude mice. The conditions noted are these: HCT 116, Colon; oral BID, best of intermittent or continuous dose schedule. On the procedure: as §1
In another assay the test system is HL60 xenograft. The assay is described as follows: Xenograft tumor growth inhibition (Example 3). The conditions noted are these: HL60, Leukemia; oral BID, best of intermittent or continuous dose schedule. Type of assay: in vivo, athymic nude mice. As for the experimental part:
as §1

In another assay the test system is MDA-MB-231 xenograft. The assay is described as follows: Xenograft tumor growth inhibition (Example 3). Particulars: MDA-MB-231, Breast; oral BID, best of intermittent or continuous dose schedule. The format is in vivo, athymic nude mice. On the procedure:
as §1

The next assay concerns MES-SA xenograft. The assay is described as follows: Xenograft tumor growth inhibition (Example 3). The format is in vivo, athymic nude mice. Particulars: Uterine, oral BID, best of intermittent or continuous dose schedule. On the procedure: as §1
Another assay concerns MiaPaCa2 xenograft. The assay is described as follows: Xenograft tumor growth inhibition (Example 3). Type of assay: in vivo, athymic nude mice. Particulars: MiaPaCa2, Pancreas; oral BID, best of intermittent or continuous dose schedule. As for the experimental part: as §1
Another assay concerns NCI-H460 xenograft. The assay can be described thus: Xenograft tumor growth inhibition (Example 3). The format is in vivo, athymic nude mice. Particulars: NCI-H460, Lung; oral BID, best of intermittent or continuous dose schedule. On the procedure:
as §1

A further assay concerns MES-SA Dx5 xenograft. The assay is described as follows: Xenograft tumor growth inhibition (Example 3). The format is in vivo, athymic nude mice. On the procedure:
as §1
The effect of AMG 900 was tested on the multidrug resistant cell line MES-SA Dx5 grown in vivo as a tumor xenograft. Mice were administered AMG 900 orally at 15 mg/kg BID for 2 consecutive days per week or 3.0 mg/kg BID everyday for the duration of the study. Dosing was initiated when tumors were established (10 days after tumor implantation).
MES-SA Dx5, multi-drug resistant, cells (2×10^6) were injected subcutaneously in the right flank of female athymic nude mice. Tumors were measured twice per week. Treatment began on day 10 when the tumors were ˜100 mm^3. […] P-values correspond to statistical difference between groups treated with vehicle and AMG 900 determined by RMANOVA followed by Dunnett's post-hoc test. […]

Assay [1] relates to MDA-MB-231 PTX paclitaxel resistant. The assay is described as follows: p-histone H3 fluorescence-based cell imaging assay. Further details: species or system human. The conditions noted are these: Homo sapiens. On the procedure:
(§2) All high-content cell assays were performed on an ArrayScan VTi HCS Reader (Cellomics). Tumor cell lines were treated with AMG 900, AZD1152, MK-0457, or PHA-739358 (concentration range varied based on potency). The cells were prepared for intracellular staining with an anti-p-histone H3 Ser^10 antibody as previously described (1). Detection was performed with an anti-rabbit IgG-alexa-568 antibody and DAPI. The cellular levels of p-histone H3 were analyzed using Target Activation V2 algorithm (Cellomics) to determine the percentage of positive cells. For the imaging assays, the concentration-response curves and corresponding IC50 and EC50 values were calculated using the percentage of cells affected versus the DMSO control.

The next assay relates to MDA-MB-231 parental. The assay can be described thus: p-histone H3 fluorescence-based cell imaging assay. Further details: species or system human. The conditions noted are these: Homo sapiens, P-gp −. On the procedure: as §2
For another assay, the system named is MES-SA parental. The assay is described as follows: p-histone H3 fluorescence-based cell imaging assay. Further details: species or system human. The conditions noted are these: Homo sapiens, P-gp −. As for the experimental part:
as §2

Assay [2] concerns MES-SA-Dx5 doxorubicin resistant. The assay can be described thus: p-histone H3 fluorescence-based cell imaging assay. Particulars: Homo sapiens. Also on record: species or system human. As for the experimental part: as §2
For assay [3], the system named is NCI-H460 PTX paclitaxel resistant. The assay can be described thus: p-histone H3 fluorescence-based cell imaging assay. Further details: species or system human. The conditions noted are these: Homo sapiens. As for the experimental part: as §2
The next assay deals with NCI-H460 parental. The assay is described as follows: p-histone H3 fluorescence-based cell imaging assay. Also on record: species or system human. The conditions noted are these: Homo sapiens, P-gp −. On the procedure:
as §2

Assay [4] deals with MDR tumor cell lines expressing either P-gp or BCRP. The assay is described as follows: p-histone H3 / polyploidy in MDR tumor cell lines (summary). The conditions noted are these: Homo sapiens; all cell lines tested irrespective of P-gp or BCRP status; read-out: IC50 or EC50 values (p-histone H3 inhibition or polyploidy). Type of assay: cell-based. On the procedure:
as §2
Tumor cells were treated with AMG 900, AZD1152, MK-0457, or PHA-739358 (range concentration varied based on potency) for 24 hours and processed for cell-cycle analysis (DNA staining only) as previously described (1). Cells were analyzed on a LSRII flow cytometer using BD FACS Diva software. The concentration-response curves and corresponding EC50 values were calculated using the percentage of cells with ≧4N DNA content versus the DMSO control.

One may read the EC50 as the concentration giving half of the maximal effect. The IC50 is the concentration that inhibits the measured activity by half.

As for `Cc1csc(-c2nnc(Nc3ccc(Oc4ncccc4-c4ccnc(N)n4)cc3)c3ccccc23)c1` [AMG 900, N-(4-((3-(2-amino-4-pyrimidinyl)-2-pyridinyl)oxy)phenyl)-4-(4-methyl-2-thienyl)-1-phthalazinamine], the “% TGI (tumor growth inhibition)” value worked out at 58% in the assay with Colo 205 xenograft; 83% in the assay on HCT 116 xenograft; 68% in the assay on HL60 xenograft; 82% in the assay on MDA-MB-231 xenograft; 86% in the assay with MES-SA xenograft; 62% in the assay with MiaPaCa2 xenograft. Further, the “% TGI (tumor growth inhibition)” value in the assay with NCI-H460 xenograft is on record as 85%; in the assay on MES-SA Dx5 xenograft (MES-SA Dx5, Uterine, oral BID, best of intermittent or continuous dose schedule), 73%. Further, the “tumor growth vs vehicle control” value with MES-SA Dx5 xenograft (MES-SA Dx5, 15 mg/kg BID 2 consecutive days per week and 3.0 mg/kg BID everyday, p<0.0001) is given as “statistically significant tumor growth inhibition”. Also, the EC50 amounted to 3 nM in assay [1] (MDA-MB-231-PTX*, Breast, P-gp+, read-out: Cellular EC50); 2 nM in assay [2] (MES-SA Dx5*, Uterine, P-gp+, read-out: Cellular EC50); 3 nM in assay [3] (NCI-H460-PTX*, Lung, P-gp+, read-out: Cellular EC50). Moreover, the IC50 in [1] (MDA-MB-231 PTX paclitaxel resistant, P-gp +) amounted to 3 nM; with MDA-MB-231 parental, 2 nM; with MES-SA parental, 3 nM; in [2] (MES-SA-Dx5 doxorubicin resistant, P-gp +) it was 2 nM; in assay [3] (NCI-H460 PTX paclitaxel resistant, P-gp +), 3 nM; in the assay with NCI-H460 parental, 3 nM. For the same compound, the IC50 in assay [4] was 2 to 3 nM.
